Experiments:
[1] = system: Mytilus galloprovincialis; test: Mussels efficacy test (trocophora and veliger larvae); type: in vivo; conditions: after 24 hours
Procedure: Mussels are bivalve shellfish that grow quickly and profusely. They have two identical, convex shells. These shells are elongate, triangular and joined by a rubbery hinge ligament on the upper side. There are three main periods in the Mytilus galloprovincialis life cycle: the larval, juvenile, and adult stages. The larvae are planktonic (float in water column) during their initial three life stages: trochophore, veliger, and pediveliger.
Efficacy tests were carried out by using two larval stages of this organism: trocophora and veliger. Adult specimens of this organism were collected and transferred into our laboratories, where they were cleaned from debris, and put in single 200 ml beakers, with […] filtered natural sea-water. Through a thermal shock, sexual products (eggs and sperma) were obtained. Fertilized eggs (about 300.000) were filtered and put in 1000 ml beakers, with […] filtered natural sea-water. Cultures were maintained at 20° C., with a photoperiod of 16:8 light:dark. After the first 24 hours post-fertilization, trocophora stage is present. Larvae were reared and fed with a planktonic alga, Pavlova lutheri, every day they were filtered, and water was changed. Veliger stage is reached about 48-72 hours after fertilization.

[2] = system: Staphylococcu aureus ATCC 25923; test: Microdilution broth MIC/MBC; type: cell-based, Staphylococcus aureus; conditions: 24 h at 25° C., dark
Procedure: (§1) b) Serial dilution test: the antibiotic activity is determined quantitatively by using the known sensitivity of a test strain towards an antibiotic which is expressed numerically as the minimal inhibitory concentration (MIC) and the minimal bactericidal concentration (MBC).
(§2) Procedure: serial dilutions of the antibiotic to be tested are pipetted into the antibiotic broth, this is then inoculated with a defined quantity of the relevant test strain (FIG. 4).
(§3) The Minimum Inhibitory Concentration (MIC) was defined as the lowest concentration of antibiotic which prevented visual turbidity after incubation.
The Minimum Bactericidal Concentration (MBC) is defined as the lowest concentration of an antibiotic killing the majority of a bacterial inoculum (99.9%, equivalent to a thousand-fold reduction of the inoculum). Method: Following a broth dilution MIC test, from each tube in the dilution series a defined volume (20 μL) is spread onto plates without antibiotics. […] The plates were incubate overnight (longer for slow growing bacteria) and then counted the number of colonies growing from each of the test tubes. The number of colonies corresponding to a thousand-fold reduction (MBC) can be calculated if the colony count of the start inoculum is known. […]
Antimicrobial assays were performed in dark, and results were read after 24 h of incubation at 25° C. […]

[3] = system: cysts (resting stage) of Scrippsiella trochoidea; test: Inhibition of dynoflagellates cysts hatching; type: cell-based; conditions: after 6 days
From the text: For this test, cysts (resting stage) of Scrippsiella trochoidea (Dinophyta) were used. Scrippsiella trochoidea (order Peridiniales, subfamily Calciodinelloideae) i.e. a non-toxic autotrophic orthoperidinioid dinoflagellate producing calcareous resting cysts which are abundant in coastal marine sediments. The maturation period for S. trochoidea cysts rang between 2 and 5 weeks.
S. trochoidea cysts are very convenient for experimental purposes because their sorting and culturing is comparatively easy, the cysts being relatively abundant in sediments.
Sediments were sampled in Mar Piccolo (Taranto). The utilized method allowed us to pick up the superficial sediment layer of a certain area entirely, where most of the cysts is present. The sample was immediately kept at dark at 4° C. Sediments collected about one year ago were utilized, in order to be sure that the hatching refractoriness period of cysts was finished. The sample (about 2 ml of sediment) was then dissolved in 0,45 μm filtered natural sea-water, sonified for 1 minute (Branson Sonifier) in order to brake sediment clots, resuspended in filtered sea-water and filtered on a Endecotts sieve, with a 20 μm steel mesh. […]

Micrococcus sp. AE11 = test: Microdilution broth MIC/MBC; type: cell-based; conditions: 24 h at 25° C., dark
Procedure: as §1, §2, §3
(§4) The Minimum Bactericidal Concentration (MBC) is defined as the lowest concentration of an antibiotic killing the majority of a bacterial inoculum (99.9%, equivalent to a thousand-fold reduction of the inoculum). Method: Following a broth dilution MIC test, from each tube in the dilution series a defined volume (20 μL) is spread onto plates without antibiotics. To minimize the carry-over effect of antibiotic from the test tubes, let the drop “dry” before the inoculum is spread over the surface (a section of the agar plate). The plates were incubate overnight (longer for slow growing bacteria) and then counted the number of colonies growing from each of the test tubes. The number of colonies corresponding to a thousand-fold reduction (MBC) can be calculated if the colony count of the start inoculum is known.
(§5) The microdilution broth method was used to evaluate the MIC and the MBC against 15 aerobic bacteria isolated from culture collection and seawater. Antimicrobial dilutions were performed using Mueller Hinton Broth supplemented with divalent cations. The tested product was dissolved in the medium to obtain a final range concentration between 0,12 to 64 mg/l.
(§6) Antimicrobial assays were performed in dark, and results were read after 24 h of incubation at 25° C. Each test towards the same indicator strain was performed in three replicates.
(§7) The assayed strains were environment isolates identified by an internal number or standard strains identified by the ATCC or NCIMB accession number.

Aeromonas sp. CH34 = test: Microdilution broth MIC/MBC; type: cell-based; conditions: 24 h at 25° C., dark
Procedure: as §1, §2, §3, §4, §5, §6, §7

Vibrio sp. AE7 = test: Microdilution broth MIC/MBC; type: cell-based; conditions: 24 h at 25° C., dark
Procedure: as §1, §2, §3, §4, §5, §6, §7

Micrococcus sp. AD10 = test: Microdilution broth MIC/MBC; type: cell-based; conditions: 24 h at 25° C., dark
Procedure: as §1, §2, §3, §4, §5, §6, §7

Vibrio sp. AD18 = test: Microdilution broth MIC/MBC; type: cell-based; conditions: 24 h at 25° C., dark
Procedure: as §1, §2, §3, §4, §5, §6, §7

[4] = system: Vibrio parahaemolyticus AD19; test: Microdilution broth MIC/MBC; type: cell-based; conditions: 24 h at 25° C., dark
Procedure: as §1, §2, §3, §4, §5, §6, §7

[5] = system: Pseudomonas aeruginosa ATCC 10145; test: Microdilution broth MIC/MBC; type: cell-based; conditions: 24 h at 25° C., dark
Procedure: as §1, §2, §3, §4, §5, §6, §7

[6] = system: Bacillus licheniformis NCIMB 1525; test: Microdilution broth MIC/MBC; type: cell-based; conditions: 24 h at 25° C., dark
Procedure: as §1, §2, §3, §4, §5, §6, §7

[7] = system: Escherichia coli ATCC 25922; test: Microdilution broth MIC/MBC; type: cell-based; conditions: 24 h at 25° C., dark
Procedure: as §1, §2, §3, §4, §5, §6, §7

[8] = system: Bacillus subtilis ATCC 10774; test: Microdilution broth MIC/MBC; type: cell-based; conditions: 24 h at 25° C., dark
Procedure: as §1, §2, §3, §4, §5, §6, §7

Vibrio sp. CH45 = test: Microdilution broth MIC/MBC; type: cell-based; conditions: 24 h at 25° C., dark
Procedure: as §1, §2, §3, §4, §5, §6, §7

Corynebacterium sp. CT15 = test: Microdilution broth MIC/MBC; type: cell-based; conditions: 24 h at 25° C., dark
Procedure: as §1, §2, §3, §4, §5, §6, §7

[9] = system: Pseudomonas putida NCIMB 1960; test: Microdilution broth MIC/MBC; type: cell-based; conditions: 24 h at 25° C., dark
Procedure: as §1, §2, §3, §4, §5, §6, §7

[10] = system: Pseudomonas elongata NCIMB 1141; test: Microdilution broth MIC/MBC; type: cell-based; conditions: 24 h at 25° C., dark
Procedure: as §1, §2, §3, §4, §5, §6, §7

`CC1(S(=O)(=O)O)CC(=O)c2ccccc2C1=O.NC(=O)c1cccnc1` (stereo not drawn) [MNB, menadione nicotinamide bisulphite] was tested, and the LC50 ([1]; trocophorae) was 0.108 µg/mL, the LC50 ([1]; veliger) was 0.167 µg/mL and the MBC [2] was 16 µg/mL. The MIC [2] was 8 µg/mL, the LC50 [3] was 2,65 mg/L and the MBC (Micrococcus sp. AE11) was 16 µg/mL. For the same compound, the MIC (Micrococcus sp. AE11) was 8 µg/mL, the MBC (Aeromonas sp. CH34) was 64 µg/mL and the MIC (Aeromonas sp. CH34) was 32 µg/mL. The MBC (Vibrio sp. AE7) was 64 µg/mL, the MIC (Vibrio sp. AE7) was 32 µg/mL and the MBC (Micrococcus sp. AD10) was 32 µg/mL. For the same compound, the MIC (Micrococcus sp. AD10) was 16 µg/mL, the MBC (Vibrio sp. AD18) was 32 µg/mL and the MIC (Vibrio sp. AD18) was 16 µg/mL. For the same compound, the MBC [4] was 4 µg/mL, the MIC [4] was 1 µg/mL and the MBC [5] was over 64 µg/mL. The MIC [5] was over 64 µg/mL, the MBC [6] was 32 µg/mL and the MIC [6] was 16 µg/mL. The MBC [7] was over 64 µg/mL, the MIC [7] was over 64 µg/mL and the MBC [8] was 32 µg/mL. The MIC [8] was 12 µg/mL, the MBC (Vibrio sp. CH45) was 16 µg/mL and the MIC (Vibrio sp. CH45) was 16 µg/mL. It also gave an MBC (Corynebacterium sp. CT15) of 16 µg/mL, an MIC (Corynebacterium sp. CT15) of 8 µg/mL and an MBC [9] of over 64 µg/mL. For the same compound, the MIC [9] was over 64 µg/mL, the MBC [10] was 16 µg/mL and the MIC [10] was 8 µg/mL.

Source: patent US20040232089A1, “Biocidal compounds for treating water” (VANETTA S.p.A., priority 2003, published 2004)
